The values below come from US20180282323A1, “Mesoionic imidazole derivatives as insecticides” (BAYER CROPSCIENCE AKTIENGESELLSCHAFT, priority 2015, published 2018).

Series [1] relates to Myzus persicae. Description: Myzus persicae oral test. Format: in vivo. As to conditions: application rate 20 ppm, oral uptake through parafilm, after 5 days. In short, it runs like this:
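Oral feeding format: mixed-stage Myzus persicae imbibe acetone/water compound formulation in sugared IPL41 medium through parafilm. Efficacy assessed as percent aphids killed at day 5.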

A further series concerns Boophilus microplus. Description: Boophilus microplus injection test. Format: in vivo. As to conditions: application rate 20 μg/animal, assessed after 7 days by laying of fertile eggs. As for the experimental part: Boophilus microplus—Injection Test Solvent: dimethyl sulphoxide
To produce a suitable active ingredient formulation, 10 mg of active ingredient are mixed with 0.5 ml of solvent and the concentrate is diluted with solvent to the desired concentration.
1 μl of the active ingredient solution is injected into the abdomen of 5 engorged adult female cattle ticks (Boophilus microplus). The animals are transferred into dishes and kept in a climate-controlled room.
Efficacy is assessed after 7 days by laying of fertile eggs. Eggs which are not visibly fertile are stored in a climate-controlled cabinet until the larvae hatch after about 42 days. An efficacy of 100% means that none of the ticks has laid any fertile eggs; 0% means that all the eggs are fertile.

Series [2] can be described thus: log P by HPLC on reversed-phase column (EEC directive 79/831 Annex V.A8). It is filed as physicochemical. As to conditions: for log p: HPLC on reversed-phase column (footnote a); for log p a): HPLC on reversed-phase column. In short, it runs like this:
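Reversed-phase (C18) HPLC at 43° C, following EEC directive 79/831 Annex V.A8.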

Series [3] has as its system Myzus persicae. Description: Myzus persicae spray test (Chinese cabbage leaf discs). It is filed as in vivo. As to conditions: application rate 500 g/ha, after 6 days. In short, it runs like this:
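Active ingredient was formulated in acetone/DMF and diluted with water containing 1000 ppm emulsifier. Chinese cabbage leaf discs infested with all aphid stages were sprayed, and % kill was scored after 6 days (100% = all aphids dead).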

The next series relates to Diabrotica balteata. Description: Diabrotica balteata spray test. Format: in vivo. As to conditions: application rate 160 μg/well, wheat grains with beetle larvae, after 7 days. As for the experimental part:
Diabrotica balteata—Spray Test Solvent: 78 parts by weight of acetone • • 1.5 parts by weight of dimethylformamide Emulsifier: alkylaryl polyglycol ether
To produce a suitable active ingredient formulation, 1 part by weight of active ingredient is dissolved with the stated parts by weight of solvent and made up with water containing an emulsifier concentration of 1000 ppm until the desired concentration is attained. To produce further test concentrations, the formulation is diluted with emulsifier-containing water.
Pre-swollen wheat grains (Triticum aestivum) are incubated in a multiwell plate filled with agar and a little water for one day (5 seed grains per cavity). The germinated wheat grains are sprayed with an active ingredient formulation of the desired concentration. Subsequently, each cavity is infected with 10-20 beetle larvae of Diabrotica balteata.
After 7 days, the efficacy in % is determined. 100% means that all wheat plants have grown as in the untreated, uninfected control; 0% means that no wheat plant has grown.

The test system of another series is Lucilia cuprina. Description: Lucilia cuprina test. It is filed as in vivo. As to conditions: application rate 100 ppm, L1 larvae, after 2 days. The protocol: Lucilia cuprina Test Solvent: dimethyl sulphoxide
To produce a suitable active ingredient formulation, 10 mg of active ingredient are mixed with 0.5 ml of dimethyl sulphoxide, and the concentrate is diluted with water to the desired concentration.
About 20 L1 larvae of the Australian sheep blowfly (Lucilia cuprina) are transferred into a test vessel containing minced horsemeat and the active ingredient formulation of the desired concentration.
After 2 days, the kill in % is determined. 100% means that all the larvae have been killed; 0% means that no larvae have been killed.

In a further series the test system is Meloidogyne incognita. Description: Meloidogyne incognita test. It is filed as in vivo. As to conditions: application rate 20 ppm, formation of galls on lettuce after 14 days. The protocol: Meloidogyne incognita Test Solvent: 125.0 parts by weight of acetone
To produce a suitable preparation of active ingredient, 1 part by weight of active ingredient is mixed with the stated amount of solvent and the concentrate is diluted with water to the desired concentration.
Vessels are filled with sand, active ingredient solution, an egg/larvae suspension of the southern root-knot nematode (Meloidogyne incognita) and lettuce seeds. The lettuce seeds germinate and the plants develop. The galls develop on the roots.
After 14 days, the nematicidal efficacy in % is determined by the formation of galls. 100% means that no galls were found; 0% means that the number of galls on the treated plants corresponds to the untreated control.

The subject of series [4] is Myzus persicae. Description: Myzus persicae spray test (bell pepper plants). Format: in vivo. As to conditions: application rate 100 ppm, after 6 days. As for the experimental part: Myzus persicae—Spray Test Solvent: 14 parts by weight of dimethylformamide Emulsifier: alkylaryl polyglycol ether
To produce a suitable active ingredient formulation, 1 part by weight of active ingredient is dissolved with the stated parts by weight of solvent and made up with water containing an emulsifier concentration of 1000 ppm until the desired concentration is attained. To produce further test concentrations, the formulation is diluted with emulsifier-containing water. If the addition of ammonium salts or/and penetrants is required, these are each added in a concentration of 1000 ppm to the formulation solution.
Bell pepper plants (Capsicum annuum) severely infested with the green peach aphid (Myzus persicae) are treated by spraying with the active ingredient formulation in the desired concentration.
After 6 days, the kill in % is determined. 100% means that all of the aphids have been killed; 0% means that none of the aphids have been killed.

Structures are written as SMILES.

For `Cc1ccn(CC(=O)c2c([O-])n(Cc3cnc(Cl)s3)c3cccc[n+]23)n1` [Example I-1-012], the values for the efficacy in the series on Myzus persicae [1], in the series on Boophilus microplus and with Myzus persicae [3] were 100%, 100% and 90%, respectively. In series [2], this compound returned a log p of 1.63.
Consider `CC(C)OCC(=O)c1c([O-])n(Cc2ccc(Cl)nc2)c2cccc[n+]12` [Example I-1-016], for which the efficacy in the series on Myzus persicae [1], in the series with Boophilus microplus and with Myzus persicae [3] was 100% throughout. The compound further displayed a log p in series [2] of 1.67.
Turning to `CCOCC(=O)c1c([O-])n(Cc2ccc(Cl)nc2)c2cccc[n+]12` [Example I-1-020], the efficacy is reported as 100% in the series on Myzus persicae [1], 80% in the series on Boophilus microplus, 100% with Diabrotica balteata and 90% with Myzus persicae [3]. Moreover, in series [2], the log p amounted to 1.39.
On to `CC(C)SCC(=O)c1c([O-])n(Cc2cnc(Cl)s2)c2cccc[n+]12` [Example I-1-027], for which the efficacy in the series on Myzus persicae [1], with Diabrotica balteata and in the series with Myzus persicae [3] was 100% in each case. For the same compound, in the series on Lucilia cuprina, the “efficacy (kill in %)” value stood at 90%. Further, the log p in series [2] came to 2.27.
`Cc1cnn(CC(=O)c2c([O-])n(Cc3cnc(Cl)s3)c3cccc[n+]23)c1` [Example I-1-049]: the figures for the efficacy with Myzus persicae [1], in the series with Boophilus microplus and in the series with Myzus persicae [3] were 100%, 80% and 90%, respectively. The “efficacy (kill in %)” value in the series on Lucilia cuprina is 100%. Also, the log p in series [2] is reported as 1.72.
As for `CSc1ccn(CC(=O)c2c([O-])n(Cc3ccc(Cl)nc3)c3cccc[n+]23)n1` [Example I-1-054], the efficacy with Myzus persicae [1], in the series on Boophilus microplus and in the series on Myzus persicae [3] was 100% in each case. In series [2], this compound registered a log p of 1.35.
Turning to `COCCOCC(=O)c1c([O-])n(Cc2cnc(Cl)s2)c2cccc[n+]12` [Example I-1-087], the efficacy in the series on Myzus persicae [1], with Diabrotica balteata and in the series with Myzus persicae [3] was 100% throughout. Further, in the series with Lucilia cuprina, the “efficacy (kill in %)” value came out at 100%. In series [2], the log p turned out to be 1.38.
`O=C(CO)c1c([O-])n(Cc2cnc(Cl)s2)c2cccc[n+]12` [Example I-1-089] came in with an efficacy with Myzus persicae [1] of 100%. Besides, in the series on Lucilia cuprina, the “efficacy (kill in %)” value was found to be 90%. Moreover, the log p in series [2] was determined as 1.14.
`CCOCC(=O)c1c([O-])n(Cc2ccc(Cl)nc2)c2c(Cl)ccc[n+]12` [Example I-1-116] registered an efficacy in the series on Myzus persicae [1] of 100%. This compound also had a log p in series [2] of 1.78. In addition, the nematicidal efficacy in the series on Meloidogyne incognita is 90%.
Take `O=C(Nc1ccccc1)c1c([O-])n(Cc2cnc(Cl)s2)c2cccc[n+]12` [Example I-1-145]: the efficacy in the series on Myzus persicae [1] and in the series with Diabrotica balteata was 100% in each case. Also, the “efficacy (kill in %)” value with Myzus persicae [4] and in the series with Lucilia cuprina was 100% in each case. The log p in series [2] stood at 2.73.
For `O=C(NC1CC1)c1c([O-])n(Cc2cncnc2)c2cccc[n+]12` [Example I-1-152], the efficacy in the series with Myzus persicae [1] is 100%; in the series on Boophilus microplus it was 80%; with Myzus persicae [3] it was 90%. The same compound yielded a log p in series [2] of 0.84.
`CC(c1ccc(Cl)nc1)n1c([O-])c(C(=O)CCl)[n+]2ccccc12` (stereo not drawn) [Example I-1-161] yielded an efficacy with Myzus persicae [1] of 100%. This compound also gave a log p in series [2] of 1.75. Further, in the series on Meloidogyne incognita, the nematicidal efficacy was 90%.
For the compound `COCC(=O)c1c([O-])n(Cc2ccc(Cl)nc2)c2ccc(F)c[n+]12` [Example I-1-165], the efficacy in the series on Myzus persicae [1] is given as 100%; in the series on Boophilus microplus, 100%; with Myzus persicae [3], 90%. Further, in series [2], the log p came out at 1.39.
In series [2], `Cc1ccc[n+]2c(C(=O)NCc3ccc(Cl)cc3)c([O-])n(Cc3ccc(Cl)nc3)c12` [Example I-1-176] yielded a log p of 2.92. In the series on Meloidogyne incognita, this compound registered a nematicidal efficacy of 90%.
In turn, `O=C(NC1CC1)c1c([O-])n(Cc2ccc(Cl)nc2)c2c(OC(F)(F)F)ccc[n+]12` [Example I-1-196] registered a log p in series [2] of 2.33. The compound further gave a nematicidal efficacy in the series on Meloidogyne incognita of 90%.
With `CC(c1ccc(Cl)nc1)n1c([O-])c(C(=O)NC2CC2)[n+]2ccccc12` (stereo not drawn) [Example I-1-202], the efficacy in the series on Myzus persicae [1] stood at 100%; in the series on Boophilus microplus, 80%; in the series on Diabrotica balteata it was 80%. Moreover, the “efficacy (kill in %)” value in the series with Myzus persicae [4] is given as 90%; with Lucilia cuprina it was 100%. Also, the “log p a)” value in series [2] is reported as 1.75.
As for `Cc1cnc(Cn2c([O-])c(C(=O)NC3CC3)[n+]3ccccc23)cn1` [Example I-1-217], the efficacy is 100% in the series with Myzus persicae [1], 80% in the series with Boophilus microplus and 100% with Myzus persicae [3]. For the same compound, the “log p a)” value in series [2] is 1.13.
For `CC(c1cnc(Cl)s1)n1c([O-])c(C(=O)NC2CC2)[n+]2ccccc12` (stereo not drawn) [Example I-1-254], the efficacy in the series with Myzus persicae [1] was determined as 100%; in the series on Boophilus microplus it was 80%; in the series with Diabrotica balteata, 100%; in the series on Myzus persicae [3], 90%. Besides, the “efficacy (kill in %)” value in the series with Lucilia cuprina worked out at 100%. In addition, the “log p a)” value in series [2] was determined as 1.94.
Consider `Cc1ccc[n+]2c(C(=O)Nc3c(F)cccc3Cl)c([O-])n(Cc3cnc(Cl)s3)c12` [Example I-1-276], for which the efficacy stood at 100% in the series with Myzus persicae [1], 100% in the series with Diabrotica balteata and 90% in the series with Myzus persicae [3]. Also, the “log p a)” value in series [2] came to 2.93. In the series on Meloidogyne incognita, the nematicidal efficacy is reported as 90%.
As for `O=C(Nc1c(Cl)cccc1Cl)c1c([O-])n(Cc2ccc(Cl)nc2)c2cccc[n+]12` [Example I-1-314], the efficacy in the series with Myzus persicae [1] and in the series with Myzus persicae [3] was 100% each time. Moreover, in series [2], the “log p a)” value came out at 2.59. For the same compound, in the series with Meloidogyne incognita, the nematicidal efficacy is 90%.
On to `O=C(Nc1c(F)cccc1Cl)c1c([O-])n(Cc2ccc(Cl)nc2)c2cccc[n+]12` [Example I-1-316], for which the efficacy with Myzus persicae [1] and with Myzus persicae [3] was 100% in each case. For the same compound, in series [2], the “log p a)” value turned out to be 2.44. In the series with Meloidogyne incognita, this compound returned a nematicidal efficacy of 90%.
The compound `Cc1cccc(C)c1NC(=O)c1c([O-])n(Cc2cnc(Cl)s2)c2cccc[n+]12` [Example I-1-321] yielded an efficacy in the series on Myzus persicae [1] of 100%. The “log p a)” value in series [2] was determined as 2.76. The nematicidal efficacy in the series on Meloidogyne incognita is given as 90%.
As for `COc1cccc(F)c1NC(=O)c1c([O-])n(Cc2cnc(Cl)s2)c2cccc[n+]12` [Example I-1-323], in the series on Myzus persicae [1], the efficacy is given as 100%. Also, the “log p a)” value in series [2] was found to be 2.27. The nematicidal efficacy in the series with Meloidogyne incognita was 90%.
